Laboratory results: publication PMC10385825, “Synthesis of Benzocycloalkanone-Based Michael Acceptors and Biological Activities as Antimalarial and Antitrypanosomal Agents” (Molecules, 2023)
“And” between values parts separate entries of the source, which are not always exact repeats. Equal entries are not always repeated.

Legend:
[1] = tested on: T. cruzi epimastigotes (Y strain); assay: Trypanocidal activity, proliferation of T. cruzi epimastigotes (MTT); format: cell-based; settings: Trypanosoma cruzi, 96 h, read-out: %ITcP: T. cruzi (epimastigotes) % inhibition proliferation
Description: The trypanocidal activity of compounds 7–39 was evaluated on the viability of T. cruzi epimastigotes (Y Strain). Parasites were cultivated in LIT medium supplemented with 10% FBS. The MTT method was used with minor modifications. Next, 2 × 10^6 parasites/mL were seeded in a 96-well plate, adding 50 μM of each derivative dissolved in DMSO (final concentration remained below 1%). The plate was incubated for 96 h at 29 °C. Then, 5 mg mL^−^1 of 3-(4,5-dimethylthiazol-2-yl)-2,5-diphenyl tetrazolium bromide (MTT) was added and incubated in darkness for 4 h. After this time, acidic isopropanol (4N) was added and the plate was read at 540 nm in a spectrophotometer Synergy HT (Biotek). Benznidazole (50 µM) was used as a reference drug.

VERO cells = assay: Cytotoxicity assay in VERO cells (MTT); format: cell-based; settings: Chlorocebus sabaeus, 72 h
Description: The in vitro evaluations of compounds toxicity by MTT in VERO cells were performed as described in brief: VERO cells culture in DMEM, BSF 10%, were counted in suspension, seeded at 2 × 10^4 cells/well (100 μL) into a 96-well microplate, and incubated at 37 °C in a humidified 5% CO2 incubator for 24 h. After the incubation period, compounds were added in different concentrations: 50, 100, 150, 200, and 500 μM. The plate was incubated for 72 h in the same conditions. Then, 5 mg mL^−^1 of 3-(4,5-dimethylthiazol-2-yl)-2,5-diphenyl tetrazolium bromide (MTT) was added and incubated in darkness for 4 h. After this time, DMSO was added and the plate was read at 540 nm in a spectrophotometer Synergy HT (Biotek). The test was carried out in triplicate including untreated cells and reference drug controls.

β-hematin formation = assay: Inhibition of β-hematin formation in vitro; format: biochemical; settings: for IC50: n = 3, read-out: IC50 (βHF) inhibition of β-hematin formation (± SEM)
Description: The assay was performed according to previously reported protocols. Hemin chloride (50 μL, 4 mM) in DMSO (5.2 mg mL^−1) was pipetted into 96-well microplates. Different concentrations (0.1–100 mM) of the compounds in DMSO were added in triplicate (50 μL) with a final concentration of 0.025 mM–25 mM/well. Water (50 μL) or DMSO (50 μL) were used as controls. […] Next, the plates were incubated at 37 °C for 48 h and subsequently centrifuged (4000 rpm × 15 min). The supernatant was washed twice with DMSO (200 μL) and resuspended in NaOH (200 μL, 0.2 N). The solubilized products were diluted (1:2) with NaOH (0.1 N), and the plates were read in an ELISA reader at 405 nm (Microplate Reader, BIORAD-550). The results are expressed as % IβHF.

P. berghei ANKA = assay: Four-day suppressive test in P. berghei-infected mice; format: in vivo, Plasmodium berghei (male Balb-C mice); settings: for Sd: Survival days (± SEM): 20 mg kg−1 ip once daily, days 1–4 post-infection; for Sd: Survival days (± SEM) / %P: Percentage of parasitemia (± SEM): n = 6; for %P: Percentage of parasitemia (± SEM): fourth day post-infection, 20 mg kg−1 ip once daily for 4 days; for Survival: surviving mice/total, 20 mg kg−1 ip for 4 days
Description: Male Balb-C mice with a weight of 18–22 g were fed with a commercial diet ad libitum under standard procedures of animal care following the aforementioned method approved by the Ethics Committee of the Institute of Immunology. The animals were infected with a rodent malaria strain of Plasmodium berghei ANKA. A million infected erythrocytes, in phosphate-buffered saline solution (PBS, 10 mM, pH 7.4, 0.1 mL), were inoculated ip to infect the animal. The parasitemia was inspected by continuous microscopic examination of Giemsa-stained smears.
One million P. berghei, injected in the caudal vein i.v, were used to infect the mice (n = 6). After two hours of inoculation, the compounds that were active in vitro were dissolved in DMSO (0.1 M) and subsequently diluted with Saline-Tween 20 solution (2%), and administered ip for 4 days (20 mg kg^−^1). The parasite load was evaluated on the fourth day by examining Giemsa-stained smears. Chloroquine (20 mg kg^−^1) was used as the positive control and saline solution as the negative control. Non-treated mice were used as a baseline control for survival times. The survival days and percentage of parasitemia were used to express the results.

## O=C(Cn1ccnc1[N+](=O)[O-])NCc1ccccc1 [Bnz, benznidazole, reference compound]
[1]
  inhibition at 50 µM: 60 ± 2.9%
VERO cells
  IC50: > 200 µM

## CCN(CC)CCCC(C)Nc1ccnc2cc(Cl)ccc12 (stereo not shown) [CQ, chloroquine, reference compound]
β-hematin formation; concentration of 10 μM
  %IβHF: Percentage inhibition β-hematin formation: 95.34%
β-hematin formation
  IC50: 0.18 ± 0.1 µM
P. berghei ANKA
  Sd: Survival days (± SEM): 28 ± 1.34 days and 28 ± 1.3 days
  %P: Percentage of parasitemia (± SEM): 1.4 ± 0.54%
  Survival: 5/6

## O=C1/C(=C/c2ccc(SCc3ccccc3)cc2)Cc2ccccc21 [compound 7, (E)-2-[4-(Benzylthio)benzylidene]-2,3-dihydroinden-1-one]
other
  melting point: 155 to 157 °C

## COc1ccc2c(c1)C/C(=C\c1ccc(SCc3ccccc3)cc1)C2=O [compound 8, (E)-2-[4-(Benzylthio)benzylidene]-2,3-dihydro-5-methoxyinden-1-one]
other
  melting point: 166 to 168 °C

## COc1ccc2c(c1)C(=O)/C(=C/c1ccc(SCc3ccccc3)cc1)C2 [compound 9, (E)-2-[4-(Benzylthio)benzylidene]-2,3-dihydro-6-methoxyinden-1-one]
other
  melting point: 175 to 177 °C

## COc1ccc2c(c1OC)C/C(=C\c1ccc(SCc3ccccc3)cc1)C2=O [compound 10, (E)-2-[4-(Benzylthio)benzylidene]-2,3-dihydro-4,5-dimethoxyinden-1-one]
β-hematin formation
  IC50: 33.1 ± 2.5 µM
P. berghei ANKA
  Sd: Survival days (± SEM): 18.8 ± 4.91 days and 18.8 ± 4.9 days
  %P: Percentage of parasitemia (± SEM): 9.1 ± 2.44%
  Survival: 0/6
[1]
  inhibition at 50 µM: 33 ± 5.6%
VERO cells
  IC50: > 150 µM

## COc1cc2c(cc1OC)C(=O)/C(=C/c1ccc(SCc3ccccc3)cc1)C2 [compound 11, (E)-2-[4-(Benzylthio)benzylidene]-2,3-dihydro-5,6-dimethoxyinden-1-one]
β-hematin formation
  IC50: 0.82 ± 0.1 µM
P. berghei ANKA
  Sd: Survival days (± SEM): 14.2 ± 2.16 days and 14.2 ± 2.2 days
  %P: Percentage of parasitemia (± SEM): 7.6 ± 2.3%
  Survival: 0/6
[1]
  inhibition at 50 µM: 40 ± 8.2%
VERO cells
  IC50: > 150 µM

## COc1cc2c(c(OC)c1)C(=O)/C(=C/c1ccc(SCc3ccccc3)cc1)C2 [compound 13, (E)-2-[4-(Benzylthio)benzylidene]-2,3-dihydro-5,7-dimethoxyinden-1-one]
other
  melting point: 176 to 178 °C

## O=C1/C(=C/c2ccc(SCc3ccccc3)cc2)Cc2cc3c(cc21)OCO3 [compound 14, (E)-2-[4-(Benzylthio)benzylidene]-2,3-dihydro-5,6-methylendioxyinden-1-one]
other
  melting point: 194 to 196 °C

## Cc1cccc2c1C/C(=C\c1ccc(SCc3ccccc3)cc1)C2=O [compound 15, (E)-2-[4-(Benzylthio)benzylidene]-2,3-dihydro-4-methylinden-1-one]
other
  melting point: 167 to 169 °C

## O=C1/C(=C/c2ccc(SCc3ccccc3)cc2)Cc2cc(Cl)ccc21 [compound 16, (E)-2-[4-(Benzylthio)benzylidene]-5-chloro-2,3-dihydroinden-1-one]
other
  melting point: 140 to 142 °C

## O=C1/C(=C/c2ccc(SCc3ccccc3)cc2)Cc2ccc(Cl)cc21 [compound 17, (E)-2-[4-(Benzylthio)benzylidene]-6-chloro-2,3-dihydroinden-1-one]
other
  melting point: 204 °C

## O=C1/C(=C/c2ccc(SCc3ccccc3)cc2)Cc2c(Cl)cc(Cl)cc21 [compound 18, (E)-2-[4-(Benzylthio)benzylidene]-4,6-dichloro-2,3-dihydroinden-1-one]
other
  melting point: 181 to 183 °C

## O=C1/C(=C/c2ccc(SCc3ccccc3)cc2)Cc2cc(F)cc(F)c21 [compound 19, (E)-2-[4-(Benzylthio)benzylidene]-5,7-difluoro-2,3-dihydroinden-1-one]
VERO cells
  IC50: > 150 µM
other
  melting point: 170 to 172 °C

## O=C1/C(=C/c2ccc(OCc3ccccc3)cc2)Cc2ccccc21 [compound 20, (E)-2-[4-(Benzyloxy)benzylidene]-2,3-dihydroinden-1-one]
other
  melting point: 170 °C

## COc1ccc2c(c1)C/C(=C\c1ccc(OCc3ccccc3)cc1)C2=O [compound 21, (E)-2-[4-(Benzyloxy)benzylidene]-2,3-dihydro-5-methoxyinden-1-one]
other
  melting point: 141 to 142 °C

## COc1ccc2c(c1)C(=O)/C(=C/c1ccc(OCc3ccccc3)cc1)C2 [compound 22, (E)-2-[4-(Benzyloxy)benzylidene]-2,3-dihydro-6-methoxyinden-1-one]
other
  melting point: 178 to 179 °C

## COc1ccc2c(c1OC)C/C(=C\c1ccc(OCc3ccccc3)cc1)C2=O [compound 23, (E)-2-[4-(Benzyloxy)benzylidene]-2,3-dihydro-4,5-dimethoxyinden-1-one]
other
  melting point: 167 to 168 °C

## COc1cc2c(cc1OC)C(=O)/C(=C/c1ccc(OCc3ccccc3)cc1)C2 [compound 24, (E)-2-[4-(Benzyloxy)benzylidene]-2,3-dihydro-5,6-dimethoxyinden-1-one]
other
  melting point: 207 to 208 °C

## COc1ccc(OC)c2c1C/C(=C\c1ccc(OCc3ccccc3)cc1)C2=O [compound 25, (E)-2-[4-(Benzyloxy)benzylidene]-2,3-dihydro-4,7-dimethoxyinden-1-one]
other
  melting point: 209 to 210 °C

## Cc1cccc2c1C/C(=C\c1ccc(OCc3ccccc3)cc1)C2=O [compound 27, (E)-2-[4-(Benzyloxy)benzylidene]-2,3-dihydro-4-methylinden-1-one]
other
  melting point: 127 to 129 °C

## O=C1/C(=C/c2ccc(OCc3ccccc3)cc2)Cc2cc(Cl)ccc21 [compound 28, (E)-2-[4-(Benzyloxy)benzylidene]-5-chloro-2,3-dihydroinden-1-one]
other
  melting point: 189 to 190 °C

## O=C1/C(=C/c2ccc(OCc3ccccc3)cc2)Cc2ccc(Cl)cc21 [compound 29, (E)-2-[4-(Benzyloxy)benzylidene]-6-chloro-2,3-dihydroinden-1-one]
other
  melting point: 186 to 187 °C

## O=C1/C(=C/c2ccc(OCc3ccccc3)cc2)Cc2c(Cl)cc(Cl)cc21 [compound 30, (E)-2-[4-(Benzyloxy)benzylidene]-4,6-dichloro-2,3-dihydroinden-1-one]
other
  melting point: 202 to 203 °C

## O=C1/C(=C/c2ccc(OCc3ccccc3)cc2)Cc2cc(F)cc(F)c21 [compound 31, (E)-2-[4-(Benzyloxy)benzylidene]-5,7-difluoro-2,3-dihydroinden-1-one]
other
  melting point: 204 to 206 °C

## O=C1/C(=C/c2ccc(SCc3ccccc3)cc2)CCc2ccccc21 [compound 32, (E)-2-[4-(Benzylthio)benzylidene]-3,4-dihydronaphthalen-1(2H)-one]
[1]
  inhibition at 50 µM: 43.7 ± 6.7%
VERO cells
  IC50: > 150 µM
other
  melting point: 99 to 100 °C

## COc1cccc2c1CC/C(=C\c1ccc(SCc3ccccc3)cc1)C2=O [compound 33, (E)-2-[4-(Benzylthio)benzylidene]-3,4-dihydro-5-methoxynaphthalen-1(2H)-one]
[1]
  inhibition at 50 µM: 51.1 ± 3.4%
VERO cells
  IC50: > 150 µM

## COc1ccc2c(c1)CC/C(=C\c1ccc(SCc3ccccc3)cc1)C2=O [compound 34, (E)-2-[4-(Benzylthio)benzylidene]-3,4-dihydro-6-methoxynaphthalen-1(2H)-one]
other
  melting point: 122 to 124 °C

## COc1ccc2c(c1)C(=O)/C(=C/c1ccc(SCc3ccccc3)cc1)CC2 [compound 35, (E)-2-[4-(Benzylthio)benzylidene]-3,4-dihydro-7-methoxynaphthalen-1(2H)-one]
[1]
  inhibition at 50 µM: 36.2 ± 6.1%
VERO cells
  IC50: > 150 µM
